pIC50: −log10 of the molar value. Activity calls are given as the source filed them. The rule behind the calls is not given here.
Key:
L1210 = test: Cytotoxicity against mouse L1210 cells; assay type: functional, cell-based
Nucleic Acid [1] = test: Alkylation of cell free 32p end labeled double stranded w794 DNA at 10 uM after 48 hrs by PAGE and autoradiography; assay type: nucleic-acid assay
Nucleic Acid [2] = test: Alkylation of cell free 32p end labeled double stranded w794 DNA at 100 uM after 48 hrs by PAGE and autoradiography; assay type: nucleic-acid assay

With `COC(=O)c1nc2c(O)cc3c(c2o1)C(CCl)CN3C(=O)c1cc2cc(OC)c(OC)c(OC)c2[nH]1` (racemic) the pIC50 (L1210) was 8.27, the Activity (Nucleic Acid [1]) was “Active” and the Activity (Nucleic Acid [2]) was “inactive”.
For `COC(=O)c1cc2c([nH]1)C(=O)C=C1N(C(=O)c3cc4cc(OC)c(OC)c(OC)c4[nH]3)C[C@H]3C[C@]123`, the Activity (Nucleic Acid [1]) was “Active” and the Activity (Nucleic Acid [2]) was “inactive”.
For `COC(=O)c1nc2c(O)cc3c(c2o1)C(CCl)CN3C(=O)OC(C)(C)C` (stereo unspecified), the pIC50 (L1210) was 6.26.

Reference: ChEMBL document CHEMBL1155407, “Synthesis and evaluation of duocarmycin SA analogs incorporating the methyl 1,2,8,8a-tetrahydrocyclopropa[c]oxazolo[2,3-e]indol-4-one-6-carboxylate (COI) alkylation subunit” (Bioorg Med Chem Lett, 2010)
